Molecules are shown by their SMILES. Square brackets hold non-standard residues; d marks the D form. Peptide text beside a SMILES is read from it. NMeF = CN[C@@H](Cc1ccccc1)C(=O)O

This is an account of results in ChEMBL document CHEMBL4765381, “Neuropeptide FF and Its Receptors: Therapeutic Applications and Ligand Development” (J Med Chem, 2020).

Assay [1] has as its target T1, Neuropeptide FF receptor 2 (Homo sapiens, UniProt Q9Y5X5). Description: Displacement of [125I]-1DMeNPFF from human NPFFR2 expressed in HEK293 cells incubated for 2 hrs by scintillation counting method. In kind it is cell-based.
The target of assay [2] is T2, Neuropeptide FF receptor 1 (Homo sapiens, UniProt Q9GZQ6). Description: Displacement of [125I]YVP from human NPFFR1 expressed in HEK293 cells by radioligand binding assay. In kind it is cell-based. A general note: Loss of bound radioactivity is the signal in a displacement assay; it reports binding, not function.
Assay [3] is described as follows: Binding affinity to NPFFR in rat spinal cord. The format is tissue-based.
The target of assay [4] is T2, Neuropeptide FF receptor 1. In words: Displacement of [125I]NPFF from human NPFFR1 expressed in CHO cell membranes incubated for 120 mins by scintillation/luminescence counting method. Details: species or system Membrane.
Assay [5] concerns the target T2, Neuropeptide FF receptor 1. Description: Antagonist activity at human NPFFR1 expressed in CHO-RD-HGA16 cells assessed as reduction in NPFF-induced calcium influx by measuring apparent dissociation constant Ke preincubated for 15 mins followed by NPFF addition by calcium-5 dye based fluorescence method. In kind it is functional, cell-based. Conditions: CHO/Galpha16, filed as antagonist.

In assay [6] the target is T2, Neuropeptide FF receptor 1. Description: Antagonist activity at human NPFFR1 expressed in CHO-K1 cells assessed as apparent dissociation constant Ke by Eu-cAMP tracer based TR-FRET assay. In kind it is functional, cell-based. Conditions: filed as antagonist. (In general: TR-FRET usually uses a lanthanide donor and a delayed reading to cut background.)
Assay [7] deals with T1, Neuropeptide FF receptor 2. In words: Displacement of [125I]NPFF from human NPFFR2 expressed in CHO cell membranes incubated for 120 mins by scintillation/luminescence counting method. More on the design: species or system Membrane.
Assay [8] deals with T1, Neuropeptide FF receptor 2. Description: Antagonist activity at human NPFFR2 expressed in CHO-RD-HGA16 cells assessed as reduction in NPFF-induced calcium influx by measuring apparent dissociation constant Ke preincubated for 15 mins followed by NPFF addition by calcium-5 dye based fluorescence method. Conditions: CHO/Galpha16, filed as antagonist. In kind it is functional, cell-based.

Assay [9] deals with T1, Neuropeptide FF receptor 2. In words: Antagonist activity at human NPFFR2 expressed in CHO-K1 cells assessed as apparent dissociation constant Ke by Eu-cAMP tracer based TR-FRET assay. The format is functional, cell-based. Conditions: filed as antagonist.
Assay [10] in a line: Displacement of [ […]]Y8Famide from NPFFR in rat spinal cord membranes. In kind it is cell membranes, Membrane.
Assay [11] has as its target T1, Neuropeptide FF receptor 2. In words: Displacement of TAMRA-NPFF from human NPFFR2 expressed in CHO-K1 cells preincubated for 15 mins followed by GTPgammaS addition and measured after 15 to 120 mins by competitive binding assay. The format is cell-based.
Assay [12] addresses T1, Neuropeptide FF receptor 2. In words: Agonist activity at human NPFFR2 expressed in CHO cells assessed as inhibition of forskolin-induced intracellular cAMP production incubated for 5 hrs by firefly/renilla luciferase reporter assay. The format is functional, cell-based.
Assay [13] is described as follows: Displacement of [125I]-1DMe from NPFF receptor in Sprague-Dawley rat dorsal horn of spinal cord incubated for 150 mins by autoradiography. In kind it is tissue-based.
Assay [14] addresses T1, Neuropeptide FF receptor 2. In words: Displacement of [125I]EYF from human NPFFR2 expressed in CHO cells by gamma-counter method. In kind it is cell-based.
Assay [15] is described as follows: Displacement of [125I][Tyr1]-NPFF from NPFF receptor in rat spinal cord membranes by Cheng-Prusoff analysis. In kind it is cell membranes, Membrane.
Assay [16] concerns Mus musculus. In words: Reversal of morphine-induced analgesia in icv dosed CDF1 mouse assessed as minimum effective dose measured after 15 mins by tail-flick test. In kind it is functional. Particulars: 0.25 h. (Thermal pain tests record how soon the animal reacts.)
For assay [17], the target named is T2, Neuropeptide FF receptor 1. In words: Displacement of [125I]YVP from human NPFFR1 expressed in CHO cells. The format is cell-based.
Assay [18] concerns the target T1, Neuropeptide FF receptor 2. In words: Displacement of [125I]Tyr-NPFF from human NPFFR2 expressed in green monkey Cos-1 cells. The format is cell-based.

T1 sequence (Q9Y5X5 whole entry): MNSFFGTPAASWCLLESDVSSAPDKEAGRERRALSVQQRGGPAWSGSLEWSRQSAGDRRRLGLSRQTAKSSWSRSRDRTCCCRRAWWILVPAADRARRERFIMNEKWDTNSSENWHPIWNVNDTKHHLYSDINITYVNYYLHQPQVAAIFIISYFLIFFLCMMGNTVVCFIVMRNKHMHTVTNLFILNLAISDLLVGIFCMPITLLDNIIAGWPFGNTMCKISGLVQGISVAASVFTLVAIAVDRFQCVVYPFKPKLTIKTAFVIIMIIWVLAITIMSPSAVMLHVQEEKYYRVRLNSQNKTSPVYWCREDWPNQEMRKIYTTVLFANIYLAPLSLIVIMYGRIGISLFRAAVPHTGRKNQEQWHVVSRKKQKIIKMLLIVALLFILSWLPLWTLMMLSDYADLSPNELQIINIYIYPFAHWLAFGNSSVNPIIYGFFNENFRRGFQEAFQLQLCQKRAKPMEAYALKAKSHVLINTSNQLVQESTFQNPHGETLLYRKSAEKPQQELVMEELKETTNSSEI
T2 sequence (Q9GZQ6 whole entry): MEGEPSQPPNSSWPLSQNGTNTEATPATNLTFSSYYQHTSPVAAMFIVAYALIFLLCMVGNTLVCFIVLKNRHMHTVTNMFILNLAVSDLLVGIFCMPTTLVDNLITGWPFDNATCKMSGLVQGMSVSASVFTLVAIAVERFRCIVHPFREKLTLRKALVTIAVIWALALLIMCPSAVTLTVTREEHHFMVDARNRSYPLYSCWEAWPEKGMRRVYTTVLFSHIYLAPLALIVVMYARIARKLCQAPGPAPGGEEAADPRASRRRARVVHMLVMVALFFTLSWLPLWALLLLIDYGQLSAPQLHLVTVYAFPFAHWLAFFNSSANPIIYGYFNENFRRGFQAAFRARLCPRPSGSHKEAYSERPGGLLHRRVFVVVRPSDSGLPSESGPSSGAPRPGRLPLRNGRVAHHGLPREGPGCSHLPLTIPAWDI

Consider `CC(C)C[C@H](NC(=O)[C@H](N)Cc1ccc(O)cc1)C(=O)N(C)[C@@H](Cc1ccccc1)C(=O)N[C@@H](CCC(N)=O)C(=O)N1CCC[C@H]1C(=O)N[C@@H](CCC(N)=O)C(=O)N[C@@H](CCCN=C(N)N)C(=O)N[C@@H](Cc1ccccc1)C(N)=O` (H-[dY]L[NMeF]QPQRF-NH2), for which the figures for the inhibition constant (Ki) in assay [1], in assay [2] and in assay [3] were 3.2 nM, 2 nM and 0.07 nM, respectively.

Consider `COc1ccc(CN[C@H]2C[C@@H](C(=O)OCCc3ccc([N+](=O)[O-])cc3)N(Cc3ccccc3Cl)C2)cc1`, for which the Ki (usually the equilibrium dissociation constant of an inhibitor or competing ligand from its target) was determined as 610 nM in [4] and 1670 nM in [7]. The Ke in assay [5] was 0.25 µM; in [6], 0.49 µM; in assay [8], 0.69 µM; in [9], 1.17 µM.

The compound `CN(C)c1cccc2c(S(=O)(=O)N3CCC[C@H]3C(=O)N[C@@H](CCC(N)=O)C(=O)N[C@@H](CCCNC(=N)N)C(N)=O)cccc12` [DANSYLPQRAMIDE] yielded a Ki in assay [10] of 13000 nM.

As for `COc1cc2c(c(OC)c1OC)-c1c(cc3c(c1OC)CC3)[C@@H](C(=O)Oc1ccccc1)[C@@](C)(O)[C@@H](C)C2`, the affinity in assay [11] corresponds to a Ki of 2.17 nM. In assay [12], the half-maximal effective concentration (EC50) – broadly, the concentration at which the effect is half-maximal – stood at 2220 nM.

The compound `NC(=O)CC[C@H](NC(=O)[C@@H]1CCCN1)C(=O)N[C@@H](CCCN=C(N)N)C(=O)N[C@@H](Cc1ccccc1)C(N)=O` gave an inhibition constant (Ki) in assay [13] of 15.5 nM.

As to `CCCCCOC(=O)[C@@H]1C[C@H](NCc2ccc(OC)cc2)CN1Cc1ccccc1Cl`, the inhibition constant (Ki) in assay [4] amounted to 890 nM; in [7] it was 1440 nM. Besides, the Ke is 0.85 µM in assay [5], 0.36 µM in assay [6], 3.09 µM in assay [8] and 2.15 µM in [9].

Turning to `CC(C)C[C@H](NC(=O)[C@H](CC(N)=O)NC(=O)[C@@H]1CCCN1C(=O)[C@@H](N)C(C)C)C(=O)N1CCC[C@H]1C(=O)N[C@@H](CCC(N)=O)C(=O)N[C@@H](CCCNC(=N)N)C(=O)N[C@@H](Cc1ccccc1)C(N)=O`, the affinity in assay [14], expressed as Ki, was 23 nM.

`CC(C)C[C@H](NC(=O)[C@@H](N)Cc1ccccc1)C(=O)N[C@@H](Cc1ccccc1)C(=O)N[C@@H](CCC(N)=O)C(=O)NCC(=O)N[C@@H](CCC(N)=O)C(=O)N[C@@H](CCCN=C(N)N)C(=O)N[C@@H](Cc1ccccc1)C(N)=O` (H-FLFQGQRF-NH2) came in with a Ki in assay [15] of 1.2 nM. Besides, the MEC in [16] is listed as 8.8 nmol.

`CC(C)C[C@H](NC(=O)[C@@H](N)Cc1ccccc1)C(=O)N[C@@H](Cc1ccccc1)C(=O)N[C@@H](CCC(N)=O)C(=O)N1CCC[C@H]1C(=O)N[C@@H](CCC(N)=O)C(=O)N[C@@H](CCCN=C(N)N)C(=O)N[C@@H](Cc1ccccc1)C(N)=O`: the MEC in [16] is on record as 22 nmol. Besides, the Ki in assay [13] was found to be 0.34 nM.

For the compound `NC(N)=NCCC[C@H](NC(=O)C(c1ccccc1)c1ccccc1)C(=O)NCc1ccc(O)cc1`, the values for the inhibition constant (Ki) in assay [17] and in assay [18] were 12 nM and 461 nM, respectively.
